Active and inactive are the calls of the source. The rule behind the calls is not given here.

Assay [1] is filed under the species Homo sapiens. Nature of the assay: Growth inhibition of HFLS isolated from rheumatoid arthritis patients after 48 hrs by WST-1 assay. In kind it is functional. (In general: Formazan colour is commonly taken as a measure of viable cells.)
The next assay relates to Mus musculus. The assay is described as follows: Antiarthritic activity in SKG mouse expressing human rheumatoid arthritis invasion of inflammatory cells assessed as reduction of laminarin-induced joint swelling at 135 mg/kg, iv administered 14 days after laminarin challenge every 2 days for 36 weeks. In kind it is functional, organism-based. The arrangement: dose 135 mg/kg.

A short description of assay [2]: Induction of apoptosis in HFLS isolated from rheumatoid arthritis patients after 24 hrs using propidium iodide staining by flow cytometry relative to DNA content. In kind it is functional, Homo sapiens. (In general: A flow cytometer gives signals particle by particle.)
For assay [3], the species on record is Homo sapiens. The assay is described as follows: Induction of apoptosis in HFLS isolated from rheumatoid arthritis patients by TUNEL assay. It counts as functional.

`CCCCCCCCCCCCOCCOCCOCCOCCOCCOCCOCCOCCOCCOCCOCCOCCOCCOCCOCCOCCOCCOCCOCCOCCOCCOCCOCCO`: the “growth inhibition (GI)” value in the assay listed under Homo sapiens [1] was “Active”. In addition, the outcome with Mus musculus and in the assay listed under Homo sapiens [3] was Active. In addition, in assay [2], the Activity came to 24.8%.

`CCCCCCCCCCCCOCCOCCOCCOCCOCCOCCOCCOCCOCCOCCOCCOCCOCCOCCOCCOCCOCCOCCOCCOCCOCCOCCOCCOCCOCCO`: the “growth inhibition (GI)” value in the assay listed under Homo sapiens [1] was “Active”. Also, the Activity in assay [2] was 21.2%. The result in the assay filed under Homo sapiens [3] was Active.

Consider `CCCCCCCCCCCCOCCOCCOCCOCCOCCOCCOCCOCCOCCOCCOCCOCCOCCOCCOCCOCCOCCOCCOCCOCCOCCO`, for which the “growth inhibition (GI)” value in the assay filed under Homo sapiens [1] is “Active”. The same compound returned an Activity in assay [2] of 20.9%. Further, in the assay filed under Homo sapiens [3], the outcome was Active.

(Values after ChEMBL document CHEMBL1641549, “Inhibitory effects of hybrid liposomes on the growth of synoviocyte causing rheumatoid arthritis” (2011).)
